How the values were obtained:
[1] = system: PD-L1 on A549 lung cancer cell membrane; assay: PD-L1 on cell membrane by flow cytometry; type: cell-based; settings: concentration-dependent 5, 10, 20 μM, 24 h
Method: (§1) • (1) Different types of tumor cells (RKO, HCT116 and HT29 colon cancer cells, and A549, H1975 and H460 lung cancer cells) in the logarithmic growth phase were respectively inoculated on a 6-well plate at an inoculum density of 2.5×10^5 cells/well with 2 mL/well and then placed in a cell incubator overnight incubation. The culture mixture was removed, CBD at different concentrations (0 μM, 5 μM, 10 μM, and 20 μM) was added for treatment for 24 h, the supernatant was removed, and the cells were washed with PBS 2 times, digested with pancreatin, centrifuged at 300×g and 4° C. for 5 min, and collected. The cells were washed with precooled PBS 2 times, centrifuged at 300×g and 4° C. for 5 min, and collected. The cells were washed 2 times with precooled PBS, 100 μL of PBS was added to resuspend the cells, an anti-PD-L1-Alexa Fluor 647 antibody was added, the cells were incubated at room temperature for 30 min and centrifuged at 300×g and 4° C. for 5 min, 300 μL of PBS was added to resuspend the cells in a flow tube, and an Alexa Fluor 647 signal was detected from the sample using a flow cytometer (excitation/emission wavelength of 647 nm/666 nm). • (2) The colorectal cancer cells (RKO) in the logarithmic growth phase were inoculated into a 6-well plate at a density of 2.5×10^5 cells/well, with a 2 mL volume of the suspension in each well. The plate was placed into a cell incubator for incubation overnight, the culture mixture was removed, 20 μM CBD was added for 12 h, the supernatant was removed, PBS was used for washing 2 times, paraformaldehyde was added for fixing for 15 min, 5% BSA was added for fixing for 1 h, PBST was used for washing 2 times, a PD-L1 antibody was added overnight incubation, a red fluorescent antibody was added for incubation at room temperature for 1 h, DAPI was added for staining for 10 min, and finally, a laser scanning confocal microscope was used for photographing and analysis. 4. Research of CBD on Enhancing In Vitro Killing of Tumor Cells by T Cells

[2] = system: PD-L1 on H1975 lung cancer cell membrane; assay: PD-L1 on cell membrane by flow cytometry; type: cell-based; settings: concentration-dependent 5, 10, 20 μM, 24 h
Method: as §1

[3] = system: PD-L1 on H460 lung cancer cell membrane; assay: PD-L1 on cell membrane by flow cytometry; type: cell-based; settings: concentration-dependent 5, 10, 20 μM, 24 h
Method: as §1

[4] = system: PD-L1 on HCT116 colon cancer cell membrane; assay: PD-L1 on cell membrane by flow cytometry; type: cell-based; settings: concentration-dependent 5, 10, 20 μM, 24 h
Method: as §1

[5] = system: PD-L1 on HT29 colon cancer cell membrane; assay: PD-L1 on cell membrane by flow cytometry; type: cell-based; settings: concentration-dependent 5, 10, 20 μM, 24 h
Method: as §1

[6] = system: PD-L1 on RKO colon cancer cell membrane; assay: PD-L1 on cell membrane by flow cytometry; type: cell-based; settings: concentration-dependent 5, 10, 20 μM, 24 h
Method: as §1

[7] = system: PD-L1 on RKO colon cancer cell membranes; assay: PD-L1 on cell membrane by immunofluorescence; type: cell-based; settings: 20 μM CBD, different time
Method: as §1, with “The plate was placed into a cell incubator for incubation overnight, the culture mixture was removed, 20 μM CBD was added for 12 h, the supernatant was removed, PBS was used for washing 2 times, paraformaldehyde was added for fixing for 15 min, 5% BSA was added for fixing for 1 h, PBST was used for washing 2 times, a PD-L1 antibody was added overnight incubation, a red fluorescent antibody was added for incubation at room temperature for 1 h, DAPI was added for staining for 10 min, and finally, a laser scanning confocal microscope was used for photographing and analysis. 4. Research of CBD on Enhancing In Vitro Killing of Tumor Cells by T Cells” left out

MC38 colon cancer cells [8] = assay: MC38 subcutaneous tumor model, curcumin-administrated groups, Embodiment 4; type: in vivo, C57BL/6 mice; settings: CBD 100 mg/kg, curcumin 50 mg/kg, piperine 1 mg/kg, vitamin E 50 mg/kg, thymosin 2 mg/kg; vs control
Method: MC38 colon cancer cells were inoculated into 6-week-old female C57BL/6 mice (1×10^6 cells/mouse) to establish a subcutaneous tumor model. After the tumor volume reached 50 mm^3, the mice in the artemisinin-administered groups were grouped and administered with the following pharmaceutical combinations: (1) control group, (2) CBD (100 mg/kg)+vitamin E(α-tocopherol) (50 mg/kg)+thymosin (2 mg/kg) group, and (3) CBD (100 mg/kg)+artemisinin (20 mg/kg)+vitamin E(α-tocopherol) (50 mg/kg)+thymosin (2 mg/kg). The mice in curcumin-administrated group were grouped and administered with the following pharmaceutical combinations: (1) control group, (2) CBD (100 mg/kg) group, (3) curcumin (50 mg/kg)+piperine (1 mg/kg) group, (4) CBD (100 mg/kg)+curcumin (50 mg/kg)+piperine group (1 mg/kg), and (5) CBD (100 mg/kg)+curcumin (50 mg/kg)+piperine (1 mg/kg)+vitamin E(α-tocopherol) (50 mg/kg)+thymosin (2 mg/kg).
The tumor growth volume of the mice was monitored once every 2 days. The tumor volume was calculated as follows: tumor volume (mm^3)=0.5×(length)x(width)^2. The mice were sacrificed 14 days after drug administration, and the tumors were dissected. […]

MC38 colon cancer cells [9] = assay: MC38 subcutaneous tumor model in C57BL/6 mice, Embodiment 5; type: in vivo; settings: for Tumor volume: CBD 100 mg/kg, PAR 5 mg/kg, vitamin E 50 mg/kg
Method: MC38 colon cancer cells were inoculated into 6-week-old female C57BL/6 mice (1×10^6 cells/mouse) to establish a subcutaneous tumor model. After the tumor volume reached 50 mm^3, the mice were grouped and administered with the following pharmaceutical combinations: (1) control group (no drug administration), (2) anti-PD-1 ([…] per time) group, (3) vitamin E(α-tocopherol) (50 mg/kg) group, (4) CBD (100 mg/kg) group, (5) CBD (100 mg/kg)+vitamin E(α-tocopherol) (50 mg/kg) group, (6) PAR (5 mg/kg) group, (7) PAR (5 mg/kg)+vitamin E(α-tocopherol) (50 mg/kg) group, (8) CBD (100 mg/kg)+PAR (5 mg/kg) group, and (9) PAR (5 mg/kg)+CBD (100 mg/kg)+vitamin E(α-tocopherol) (50 mg/kg) group.
The tumor weight, tumor volume, and mouse body weight were monitored once every 2 days. The tumor volume was calculated as follows: tumor volume (mm^3)=0.5×(length)×(width)^2. The mice were sacrificed 14 days after drug administration, and the tumors were dissected.
The dissolving mode of the pharmaceutical composition was as follows: the pharmaceutical composition was dissolved in 10% DMSO+corn oil, the mice were gavaged with the pharmaceutical composition at 100 μl/mice, and the mice in the control group were injected with the same volume of the solvent.

C=C(C)[C@@H]1CCC(C)=C[C@H]1c1c(O)cc(CCCCC)cc1O [CBD, cannabidiol]
expression of PD-L1 on the cell membrane (flow assay) [1]: decreased the expression of PD-L1
expression of PD-L1 on the cell membrane (flow assay) [2]: decreased the expression of PD-L1
expression of PD-L1 on the cell membrane (flow assay) [3]: decreased the expression of PD-L1
expression of PD-L1 on the cell membrane (flow assay) [4]: decreased the expression of PD-L1
expression of PD-L1 on the cell membrane (flow assay) [5]: decreased the expression of PD-L1
expression of PD-L1 on the cell membrane (flow assay) [6]: decreased the expression of PD-L1
expression of PD-L1 on cell membranes (immunofluorescence) [7]: time-dependently decreased the expression of PD-L1
tumor growth / anti-tumor effect in words (MC38 colon cancer cells [8]): inhibited to a certain degree
Tumor volume (MC38 colon cancer cells [9]; Day 0): 0 mm^3
Tumor volume (MC38 colon cancer cells [9]; Day 4): 63.99 mm^3
Tumor volume (MC38 colon cancer cells [9]; Day 6): 113.24 mm^3
Tumor volume (MC38 colon cancer cells [9]; Day 8): 120.48 mm^3
Tumor volume (MC38 colon cancer cells [9]; Day 10): 176.51 mm^3
Tumor volume (MC38 colon cancer cells [9]; Day 12): 241.75 mm^3
Tumor volume (MC38 colon cancer cells [9]; Day 14): 314.83 mm^3
Tumor volume (MC38 colon cancer cells [9]; Day 16): 359.72 mm^3
therapeutic / tumor inhibition effect in words (MC38 colon cancer cells [9]; normal mice, Embodiment 5, comparison between groups): equivalent therapeutic effects

From patent publication US12599596B2, “Anti-tumor pharmaceutical composition based on immune checkpoint blockade and use thereof” (Shanghai Hui Tian Jin Ze Biotech Co., Ltd., priority 2023, dated 2026)
